These results are taken from patent US20220054540A1, “Ferric Carboxymaltose In The Treatment Of Heart Failure And In The Treatment Of Congestion In Heart Failure” (Vifor (International) AG, priority 2018, published 2022).

For series [1] the following is noted: publications, e.g. Qunibi et al. 2011; cited from earlier work.
For series [2] the following is noted: cited from earlier work.
The test system of series [3] is ambulatory patients with NYHA class II or III CHF and iron deficiency. Kind of series: FAIR-HF plasma volume status (PVS) substudy: post-hoc analysis of calculated PVS and clinical congestion, IV FCM vs placebo. In kind it is in vivo, human (patients). The settings on record: for change from baseline in Hct / change from baseline in PVS / change from baseline in weight: mean±SD; for change from baseline in Hct: significant increase compared to placebo. How it is done:
FAIR-HF is a multi-centre, randomized, double-blind trial including 459 ambulatory patients with NYHA class II or III CHF, a left ventricular ejection fraction (LVEF) ≤40% (NYHA II) or ≤45% (NYHA III), iron deficiency (ID) as defined by a ferritin <100 ug/l or 100 to 299 ug/l with a transferrin saturation (TSAT)<20%, and a hemoglobin (Hb) level between 9.5 and 13.5 g/dl. Patients were randomized in a 2:1 ratio to intravenous (IV) iron as ferric carboxymaltose (FCM; Ferinject®) or IV placebo (saline) weekly until iron repletion (correction phase), then 4 weekly until week 24 (maintenance phase). FCM was administered in doses of 200 mg (4 mL) weekly up to iron repletion (correction phase of variable duration depending on individual iron deficit). The calculated dose was rounded to the next 100 mg iron, i.e. the final dose may be 100 mg iron depending on the individual iron deficit. After the correction phase, FCM was administered monthly in doses of 200 mg until the 24th week (maintenance phase).
In the placebo group, during the correction phase, patients will receive the number of normal saline injections (4 mL weekly) corresponding to the calculated total iron dose needed according to the individual iron deficit. During the maintenance phase, placebo patients will receive 4 mL normal saline monthly. Regular assessments were done at weeks 4, 12, and 24.
The hematocrit value (Hct or Ht) and weight at randomization were used for plasma volume status (PVS) calculations and were available in 436 (95%) patients whose data were therefore used in this post-hoc analysis.
Actual plasma volume (PV) was calculated with the following equation that was derived by curve-fitting techniques using subjects' Hct and weight compared with PV values measured with gold standard radioisotope assays:
actual PV=([1−Hct]×[a+(b×weight [kg])])
where Hct is a fraction and a=1530 in males and 864 in females, and b=41 in males and 47.9 in females.
Ideal PV was calculated from the following well established formula:
where c=39 in males and 40 in females
Relative PVS, an index of the degree to which patients have deviated from their ideal PV, was subsequently calculated from the following equation:
PVS=([actual PV−ideal PV]/ideal PV)×100%
Patients were weighed and examined for signs and symptoms of congestion at randomization and at weeks 4, 12 and 24. The presence or absence of peripheral edema, pulmonary congestion (crackles, rales), and an S3 gallop (third heart sound) were recorded, as was the actual jugular venous pressure (JVP).
Data are presented as mean±SD, frequencies (%), or medians (interquartile range [IQR]). Intergroup comparisons were made using a Kruskall-Wallis analysis of variance (ANOVA), analysis of covariance (ANCOVA), Student t-test, Pearson χ2 test, or a Mann Whitney U-test as appropriate. Associations between variables were determined using logistic regression. A P-value <0.10 was used to enter and retain covariates into stepwise multivariable regression models.
To assess the impact of treatment assignment on PVS, comparisons of changes in PVS from baseline at 4, 12, and 24 weeks between the placebo and FCM group were evaluated by comparing the least square means at each visit from a repeated-measures model using an unstructured covariance structure and adjusting for the continuous baseline value and a visit x drug interaction. Changes over time for other variables were similarly determined.

For series [4] the test system is unchanged. To be noted: after 24 weeks of treatment, IV FCM compared to saline; cited from earlier work.
The conditions of series [5]: cited from earlier work. This is another data set of the same source.
Where [6] appears, read: week 4, significant reduction compared to placebo.

Turning to “polynuclear iron(III)-oxyhydroxide carboxypolymaltose (carboxymaltodextrin) [FCM]”, in series [1], the “peripheral edema as adverse event” value is recorded as “one of the most commonly occurring adverse events”. Also, in series [2] (in vivo), the dextran cross-reactivity entry is on record as “no dextran cross-reactivity”. The “tolerability of rapid infusion” value in series [2] (up to 1000 mg of elemental iron over 15 min, intravenous) is listed as “well tolerated”. Besides, the peripheral edema result in series [3] (FCM treatment compared to placebo (FIG. 2d)) is “improvement in peripheral edema”. Besides, in series [3] (FCM treatment vs placebo, P=0.35), the “improvement in pulmonary edema” value is “not evident”. Moreover, the “improvement in jugular venous distension” value in series [3] (FCM treatment vs placebo, P=0.54) is “not evident”. The “improvement in presence of an S3 gallop rhythm” value in series [3] (FCM treatment vs placebo, P=1.00) was “not evident”. For the same substance, the “time of maximal treatment effect on PVS” value in series [3] (FCM vs placebo) is recorded as 12 week. For the same substance, the results for the change from baseline in Hct in series [3] (week 4), in series [3] (week 12) and in series [3] (week 24) were 2 ± 4%, 3 ± 4% and 3 ± 5%, respectively. Besides, the “change from baseline in PVS” value in series [3] (setting [6]) was −2.5±5.9%; in series [3] (week 12, significant reduction compared to placebo), −3.9±6.8%; in series [3] (week 24, significant reduction compared to placebo), −4.1±7.4%. In addition, the “change from baseline in weight” value in series [3] (setting [6]) was -0.2 ± 2.4 kg; in series [3] (week 12, not significant compared to placebo) it was 0.2 ± 3.0 kg; in series [3] (week 24, not significant compared to placebo), 0.3 ± 3.2 kg. For the same substance, the “6 minute walking distance (6MWD)” value in series [4] is given as “significant improvements”. In series [4], the NYHA class result was “significant improvements”. Besides, in series [4], the “Patient Global Assessment (PGA)” value is given as “significant improvements”. In addition, the “stability of the iron-carbohydrate complex” value in series [5] (compared with ferric gluconate and iron sucrose) is “more stable than ferric gluconate or iron sucrose”. For the same substance, in series [5] (nearly neutral), the “pH of the complex” value is 5.0-7.0.
